Measured values published in ChEMBL document CHEMBL1132902, “Bicyclic nucleoside inhibitors of Varicella-Zoster Virus (VZV): the effect of a terminal halogen substitution in the side-chain” (Bioorg Med Chem Lett, 2000).
Calls of active or inactive are those of the source. No cut-off for these calls is given here.

System: Human alphaherpesvirus 2
Experiment: Compound was tested (in vitro) against Herpes simplex virus-2; Not active
Format: functional, organism-based
Conditions: not given

Row | SMILES | Activity
1 | O=c1nc2oc(CCCCCCCCCI)cc2cn1[C@H]1C[C@H](O)[C@@H](CO)O1 | inactive
2 | O=c1nc2oc(CCCCCCCCCBr)cc2cn1[C@H]1C[C@H](O)[C@@H](CO)O1 | inactive

System: Human alphaherpesvirus 3
Experiment: The compound was tested for its effective concentration required to reduce virus plaque formation by using Varicella-Zoster virus OKA strain
Format: functional, organism-based
Conditions: not given

Row | SMILES | EC50 [µM]
3 | O=c1nc2oc(CCCCCCCCCI)cc2cn1[C@H]1C[C@H](O)[C@@H](CO)O1 | 0.061
4 | O=c1nc2oc(CCCCCCCCCF)cc2cn1[C@H]1C[C@H](O)[C@@H](CO)O1 | 0.022
5 | O=c1nc2oc(CCCCCCCCCCl)cc2cn1[C@H]1C[C@H](O)[C@@H](CO)O1 | 0.007
6 | O=c1[nH]c(=O)n([C@H]2C[C@H](O)[C@@H](CO)O2)cc1C#CCCCCCCCCCBr | 1.1
7 | O=c1[nH]c(=O)n([C@H]2C[C@H](O)[C@@H](CO)O2)cc1C#CCCCCCCCCCCl | 3.6
8 | O=c1[nH]c(=O)n([C@H]2C[C@H](O)[C@@H](CO)O2)cc1C#CCCCCCCCCCI | 13
9 | O=c1[nH]c(=O)n([C@H]2C[C@H](O)[C@@H](CO)O2)cc1C#CCCCCCCCCCF | 26
10 | O=c1nc2oc(CCCCCCCCCBr)cc2cn1[C@H]1C[C@H](O)[C@@H](CO)O1 | 0.026

System: HEL
Experiment: The compound was tested for cytotoxic concentration required to inhibit Hel cell growth by 50%
Format: functional
Conditions: Homo sapiens

Row | SMILES | CC50 [µM]
11 | O=c1nc2oc(CCCCCCCCCI)cc2cn1[C@H]1C[C@H](O)[C@@H](CO)O1 | > 200
12 | O=c1nc2oc(CCCCCCCCCF)cc2cn1[C@H]1C[C@H](O)[C@@H](CO)O1 | 200
13 | O=c1nc2oc(CCCCCCCCCCl)cc2cn1[C@H]1C[C@H](O)[C@@H](CO)O1 | 200
14 | O=c1[nH]c(=O)n([C@H]2C[C@H](O)[C@@H](CO)O2)cc1C#CCCCCCCCCCBr | 97
15 | O=c1[nH]c(=O)n([C@H]2C[C@H](O)[C@@H](CO)O2)cc1C#CCCCCCCCCCCl | 74
16 | O=c1[nH]c(=O)n([C@H]2C[C@H](O)[C@@H](CO)O2)cc1C#CCCCCCCCCCI | 68
17 | CCCCCCCCCCc1cc2cn([C@H]3C[C@H](O)[C@@H](CO)O3)c(=O)nc2o1 | > 50
18 | O=c1[nH]c(=O)n([C@H]2C[C@H](O)[C@@H](CO)O2)cc1C#CCCCCCCCCCF | 116
19 | Nc1nc2c(ncn2COCCO)c(=O)[nH]1 [ACYCLOVIR] | > 200
20 | O=c1nc2oc(CCCCCCCCCBr)cc2cn1[C@H]1C[C@H](O)[C@@H](CO)O1 | > 50

System: not listed separately
Experiment: The compound was tested for its minimal cytotoxic concentration required to alter microscopically detectable cell morphology
Format: functional
Conditions: not given

Row | SMILES | MCC [µM]
21 | O=c1nc2oc(CCCCCCCCCI)cc2cn1[C@H]1C[C@H](O)[C@@H](CO)O1 | 50
22 | O=c1nc2oc(CCCCCCCCCF)cc2cn1[C@H]1C[C@H](O)[C@@H](CO)O1 | > 50
23 | O=c1nc2oc(CCCCCCCCCCl)cc2cn1[C@H]1C[C@H](O)[C@@H](CO)O1 | > 200
24 | O=c1[nH]c(=O)n([C@H]2C[C@H](O)[C@@H](CO)O2)cc1C#CCCCCCCCCCBr | 50
25 | O=c1[nH]c(=O)n([C@H]2C[C@H](O)[C@@H](CO)O2)cc1C#CCCCCCCCCCCl | 200
26 | O=c1[nH]c(=O)n([C@H]2C[C@H](O)[C@@H](CO)O2)cc1C#CCCCCCCCCCI | > 50
27 | CCCCCCCCCCc1cc2cn([C@H]3C[C@H](O)[C@@H](CO)O3)c(=O)nc2o1 | > 50
28 | O=c1[nH]c(=O)n([C@H]2C[C@H](O)[C@@H](CO)O2)cc1C#CCCCCCCCCCF | 200
29 | Nc1nc2c(ncn2COCCO)c(=O)[nH]1 [ACYCLOVIR] | > 200
30 | O=c1nc2oc(CCCCCCCCCBr)cc2cn1[C@H]1C[C@H](O)[C@@H](CO)O1 | > 200

System: Human alphaherpesvirus 2
Experiment: In vitro activity against Herpes simplex virus-2
Format: functional, organism-based
Conditions: not given

Row | SMILES | Activity
31 | O=c1nc2oc(CCCCCCCCCF)cc2cn1[C@H]1C[C@H](O)[C@@H](CO)O1 | inactive

System: Human alphaherpesvirus 3
Experiment: The compound was tested for its effective concentration required to reduce virus plaque formation by using TK- (thymidine kinase -deficient)-Varicella-Zoster virus 07/1 strain
Format: functional, organism-based
Conditions: not given

Row | EC50 [µM] | SMILES
32 | 33 | O=c1[nH]c(=O)n([C@H]2C[C@H](O)[C@@H](CO)O2)cc1C#CCCCCCCCCCF

System: Human immunodeficiency virus 1
Experiment: In vitro activity of compound against HIV-1; Not active
Format: functional, organism-based
Conditions: not given

Row | SMILES | Activity
33 | O=c1nc2oc(CCCCCCCCCI)cc2cn1[C@H]1C[C@H](O)[C@@H](CO)O1 | inactive
34 | O=c1nc2oc(CCCCCCCCCF)cc2cn1[C@H]1C[C@H](O)[C@@H](CO)O1 | inactive
35 | O=c1nc2oc(CCCCCCCCCCl)cc2cn1[C@H]1C[C@H](O)[C@@H](CO)O1 | inactive
36 | O=c1nc2oc(CCCCCCCCCBr)cc2cn1[C@H]1C[C@H](O)[C@@H](CO)O1 | inactive

System: Cytomegalovirus
Experiment: Compound was tested (in vitro) against Cytomegalovirus virus or HIV-1; Not active
Format: functional, organism-based
Conditions: not given

Row | SMILES | Activity
37 | O=c1nc2oc(CCCCCCCCCI)cc2cn1[C@H]1C[C@H](O)[C@@H](CO)O1 | inactive
38 | O=c1nc2oc(CCCCCCCCCBr)cc2cn1[C@H]1C[C@H](O)[C@@H](CO)O1 | inactive

System: Human alphaherpesvirus 3
Experiment: The compound was tested for its effective concentration required to reduce virus plaque formation by using Varicella-Zoster virus YS strain
Format: functional, organism-based
Conditions: not given

Row | SMILES | EC50 [µM]
39 | O=c1nc2oc(CCCCCCCCCI)cc2cn1[C@H]1C[C@H](O)[C@@H](CO)O1 | 0.034
40 | O=c1nc2oc(CCCCCCCCCF)cc2cn1[C@H]1C[C@H](O)[C@@H](CO)O1 | 0.014
41 | O=c1nc2oc(CCCCCCCCCCl)cc2cn1[C@H]1C[C@H](O)[C@@H](CO)O1 | 0.012
42 | O=c1[nH]c(=O)n([C@H]2C[C@H](O)[C@@H](CO)O2)cc1C#CCCCCCCCCCBr | 0.8
43 | O=c1[nH]c(=O)n([C@H]2C[C@H](O)[C@@H](CO)O2)cc1C#CCCCCCCCCCCl | 2.8
44 | O=c1[nH]c(=O)n([C@H]2C[C@H](O)[C@@H](CO)O2)cc1C#CCCCCCCCCCI | 6
45 | O=c1[nH]c(=O)n([C@H]2C[C@H](O)[C@@H](CO)O2)cc1C#CCCCCCCCCCF | 22
46 | O=c1nc2oc(CCCCCCCCCBr)cc2cn1[C@H]1C[C@H](O)[C@@H](CO)O1 | 0.031

System: Human alphaherpesvirus 3
Experiment: The compound was tested for its effective concentration required to reduce virus plaque formation by using TK (thymidine kinase -deficient)-Varicella-Zoster virus 07/1 strain
Format: functional, organism-based
Conditions: not given

Row | SMILES | EC50 [µM]
47 | O=c1nc2oc(CCCCCCCCCI)cc2cn1[C@H]1C[C@H](O)[C@@H](CO)O1 | > 50
48 | O=c1nc2oc(CCCCCCCCCF)cc2cn1[C@H]1C[C@H](O)[C@@H](CO)O1 | > 20
49 | O=c1nc2oc(CCCCCCCCCCl)cc2cn1[C@H]1C[C@H](O)[C@@H](CO)O1 | 15
50 | O=c1[nH]c(=O)n([C@H]2C[C@H](O)[C@@H](CO)O2)cc1C#CCCCCCCCCCBr | 16
51 | O=c1[nH]c(=O)n([C@H]2C[C@H](O)[C@@H](CO)O2)cc1C#CCCCCCCCCCCl | 10
52 | O=c1[nH]c(=O)n([C@H]2C[C@H](O)[C@@H](CO)O2)cc1C#CCCCCCCCCCI | 36
53 | CCCCCCCCCCc1cc2cn([C@H]3C[C@H](O)[C@@H](CO)O3)c(=O)nc2o1 | > 50
54 | O=c1nc2oc(CCCCCCCCCBr)cc2cn1[C@H]1C[C@H](O)[C@@H](CO)O1 | > 50

System: Human alphaherpesvirus 2
Experiment: Compound was tested (in vitro) against Herpes simplex virus-2
Format: functional, organism-based
Conditions: not given

Row | SMILES | Activity
55 | O=c1nc2oc(CCCCCCCCCCl)cc2cn1[C@H]1C[C@H](O)[C@@H](CO)O1 | inactive

System: Cytomegalovirus
Experiment: In vitro activity against Cytomegalovirus virus
Format: functional, organism-based
Conditions: not given

Row | SMILES | Activity
56 | O=c1nc2oc(CCCCCCCCCF)cc2cn1[C@H]1C[C@H](O)[C@@H](CO)O1 | inactive

System: Human alphaherpesvirus 3
Experiment: The compound was tested for its effective concentration required to reduce virus plaque formation by using TK (thymidine kinase -deficient) -Varicella-Zoster virus YS/R strain
Format: functional, organism-based
Conditions: not given

Row | SMILES | EC50 [µM]
57 | O=c1nc2oc(CCCCCCCCCI)cc2cn1[C@H]1C[C@H](O)[C@@H](CO)O1 | > 50
58 | O=c1nc2oc(CCCCCCCCCF)cc2cn1[C@H]1C[C@H](O)[C@@H](CO)O1 | > 20
59 | O=c1nc2oc(CCCCCCCCCCl)cc2cn1[C@H]1C[C@H](O)[C@@H](CO)O1 | 13
60 | O=c1nc2oc(CCCCCCCCCBr)cc2cn1[C@H]1C[C@H](O)[C@@H](CO)O1 | 50

Second part, the compound after the results:

Row | EC50 [µM] | SMILES
61 | 2.5 | O=c1[nH]c(=O)n([C@H]2C[C@H](O)[C@@H](CO)O2)cc1C#CCCCCCCCCCBr
62 | 9.6 | O=c1[nH]c(=O)n([C@H]2C[C@H](O)[C@@H](CO)O2)cc1C#CCCCCCCCCCCl
63 | 31 | O=c1[nH]c(=O)n([C@H]2C[C@H](O)[C@@H](CO)O2)cc1C#CCCCCCCCCCI
64 | > 50 | CCCCCCCCCCc1cc2cn([C@H]3C[C@H](O)[C@@H](CO)O3)c(=O)nc2o1
65 | 23 | O=c1[nH]c(=O)n([C@H]2C[C@H](O)[C@@H](CO)O2)cc1C#CCCCCCCCCCF

System: Cytomegalovirus
Experiment: Compound was tested (in vitro) against Cytomegalovirus virus or HIV-1
Format: functional, organism-based
Conditions: not given

Row | SMILES | Activity
66 | O=c1nc2oc(CCCCCCCCCCl)cc2cn1[C@H]1C[C@H](O)[C@@H](CO)O1 | inactive

System: Human alphaherpesvirus 1
Experiment: In vitro activity against Herpes simplex virus-1; Not active
Format: functional, organism-based
Conditions: not given

Row | SMILES | Activity
67 | O=c1nc2oc(CCCCCCCCCF)cc2cn1[C@H]1C[C@H](O)[C@@H](CO)O1 | inactive
